Source: patent publication US20170260134A1, “Ceramide Analogs” (Augusta University Research Institute, Inc., priority 2016, published 2017)
“Also recorded” adds a separate entry of the source.

Experiments:
[1] = tested on: SW480, RKO and HCT116 cells; experiment: Tumor cell apoptosis assay: ceramide analog at sublethal dose plus FasL (Annexin V/PI); type: cell-based, human; conditions: for increase of cell sensitivity to FasL-induced apoptosis: sublethal dose of analog (10 μM) plus FasL (10 ng/ml SW480, HCT; 100 ng/ml RKO); for activity in human colon carcinoma: summary statement
Experimental: FIG. 5A is a bar graph of Percent Apoptotic cell death of SW480 cells treated with the indicated ceramide analogs (10 μM), with (10 ng/ml) or without FasL and treated with FasL alone. FIG. 5B is a bar graph of Percent Apoptotic cell death of RKO cells treated with the indicated ceramide analogs (10 μM), with (100 ng/ml) or without FasL and treated with FasL alone. FIG. 5C is a bar graph of Percent Apoptotic cell death of HCT cells treated with the indicated ceramide analogs (10 μM), with (10 ng/ml) or without FasL and treated with FasL alone. % apoptotic cell death was calculated as % Annexin V^+PI^+ cells in the presence of ceramide analogs plus MegaFasL−% Annexin V^+PI^+ cells in the control group. Column: mean; Bar: SD.
Tumor cells were cultured in the presence of MegaFasL at the indicated concentrations as previously described Hu, X. et al. Deregulation of apoptotic factors Bcl-xL and Bax confers apoptotic resistance to myeloid-derived suppressor cells and contributes to their persistence in cancer. J Biol Chem 288, 19103-19115, doi:10.1074/jbc.M112.434530M112.434530 [pii] (2013). FasL (Mega-Fas Ligand®, kindly provided by Drs. Steven Butcher and Lars Damstrup at Topotarget A/S, Denmark) is a recombinant fusion protein that consists of three human FasL extracellular domains linked to a protein backbone comprising the dimmer-forming collagen domain of human adiponectin. The Mega-Fas Ligand was produced as a glycoprotein in mammalian cells using Good Manufacturing Practice compliant process in Topotarget A/S (Copenhagen, Denmark). For tumor cell apoptosis analysis, cells were stained with Alexa Fluor 647 Annexin V (Biolegend) in Annjixin V-binding buffer (10 mM Hepes, pH 7.4, 140 mM NaCl, 2.5 mM CaCl2) for 30 min at 4° C. Propidium Iodide was then added to the cell suspension, and cells were analyzed by flow cytometry as previously described Bardhan, K. et al. IFNgamma induces DNA methylation-silenced GPR109A expression via pSTAT1/p300 and H3K18 acetylation in colon cancer. Cancer Immunol Res, doi:canimm.0164.2014 [pii]2326-6066.CIR-14-0164 [pii] 10.1158/2326-6066.CIR-14-0164 (2015).
Next, the efficacy of the ceramide analogs was tested at their sublethal doses in enhancement of FasL-induced apoptosis using SW480, RKO and HCT116 cells. Tumor cells were treated with a sublethal dose of each of these 20 ceramide analogs along or ceramide analog plus FasL, and analyzed for apoptosis. […] Therefore, six novel ceramide analogs were identified that can effectively enhance the efficacy of FasL-induced apoptosis in human colon carcinoma cells.

CT26 tumor cells = experiment: CTL cytotoxicity assay with perforin-deficient CTLs (pfpCTL); type: cell-based; conditions: analog alone at the dose used
Experimental: FIG. 7A is a line graph of percent tumor cell lysis verus pfpCTLs E/T ratio. Cells were gated for CFSE^+ tumor cells. The gated cells were then analyzed for PI^+ cells. % tumor cell lysis was calculated as % CFSE^+PI^+ cells in the presence of CTLs−% CFSE^+PI^+ cells in the absence of CTLs. FIG. 7B is a bar graph of percent tumor cell lysis Cells were gated for CFSE^+ tumor cells. The gated cells were then analyzed for PI^+ cells. % tumor cell lysis was calculated as % CFSE^+PI^+ cells in the presence of ceramide analogs or ceramide analogs plus pfpCTLs−% CFSE^+PI^+ cells in the absence of ceramide analogs or ceramide analogs plus pfpCTLs. Column: mean; Bar: SD. Bolded ** indicated p<0.01 between ceramide analog+pfpCTLs group and pfpCTLs only group, and green ** indicates p<0.01 between ceramide analog+pfpCTLs group and ceramide analog only group. Column: mean; Bar: SD.
Perforin-deficient CTLs were generated and maintained by weekly stimulation with AH1 peptide as previously described Liu, K., Caldwell, S. A., Greeneltch, K. M., Yang, D. & Abrams, S. I. CTL Adoptive Immunotherapy Concurrently Mediates Tumor Regression and Tumor Escape. J Immunol 176, 3374-3382 (2006). […] Cells were analyzed immediately by flow cytometry. CFSE^+ tumor cells were gated and analyzed for PI^+ cells. […]

CT26 cells = experiment: CT26 colon carcinoma lung metastasis in BALB/c mice; type: in vivo; conditions: 25 and 50 kg body weight, intraperitoneal, days 8, 10 and 12 after tumor injection
Experimental: FIG. 8 is a bar graph of number of tumor nodules/lung in lungs taken from BALB/c mice injected with CT26 cells (2.5×10^5 cell per mouse). Tumor-bearing mice were treated with the indicated 5 ceramide analogs (25 and 50 […]) by intraperitoneal injection at days 8, 10 and 12 after tumor injection. CT26 cells (2.5×10^5 cell per mouse) were injected to BALB/c mice on […]. Tumor-bearing mice were treated with the 5 ceramide analogs (25 and 50 […]) by intraperitoneal injection at days 8, 10 and 12 after tumor injection. […]. Mouse lungs were inflated with ink and fixed. […] White dots are tumor nodules. Bottom panel: quantification of tumor nodule number in the lungs.

SW480 cells = experiment: Cell viability (MTT) assay, cytotoxicity of ceramide analogs; type: cell-based, human; conditions: three days, at the doses tested
Experimental: FIG. 4 is a bar graph of Percent Cell Viability (MTT assay) showing. cytotoxicity of the indicated ceramide analogs to human colon carcinoma cells. Human colon carcinoma SW480 cells were cultured in the presence of ceramide analogs at the indicated concentrations for three days. Cell viability was determined by MTT assays. % cell viability of control was set at 100% and cell viability of treatment groups was calculated as % of the control groups. IC50 was calculated using GraphPad Prism program.
Cells were seeded in 96-well plates at 2×10^3 cells/well in 100 μl culture medium for 3 days. Cell viability assays were performed using the MTT cell proliferation assay kit (ATCC, Manassas, Va.) according to the manufacturer's instructions.
The structures and functions of ceramide analogs Cheng, J. C. et al. Radiation-induced acid ceramidase confers prostate cancer resistance and tumor relapse. J Clin Invest 123, 4344-4358, doi:10.1172/JCI6479164791 [pii] (2013); and Paschall, A. V. et al. Ceramide targets xIAP and cIAP1 to sensitize metastatic colon and breast cancer cells to apoptosis induction to suppress tumor progression. BMC Cancer 14, 24, doi:10.1186/1471-2407-14-241471-2407-14-24 [pii] (2014) were analyzed and synthesized twenty ceramide analogs to be developed into Fas sensitizers (Supplemental Table 1). […]

| SMILES | increase of cell sensitivity to FasL-induced apoptosis [1] | activity in human colon carcinoma [1] | cytotoxicity to CT26 tumor cells (CT26 tumor cells) | established colon carcinoma lung metastasis (tumor nodules/lung) (CT26 cells) | cytotoxicity (SW480 cells) |
| --- | --- | --- | --- | --- | --- |
| CCCCCCCCCCCCCNC(=O)[C@@H](NC(=O)c1cc2c(OC)cccc2[nH]1)[C@@H](C)O [IG8] | effectively increase; also recorded: significant efficacy | potent activity | high cytotoxicity | – | – |
| CCCCCCCCCCCCN(C)C(=O)[C@@H](NC(=O)c1cc2c(F)cccc2[nH]1)[C@@H](C)O [IG19] | effectively increase; also recorded: significant efficacy | – | – | suppress | – |
| CCCC/C=C/CCCCCCCC(=O)N[C@H](CO)[C@@H](O)c1ccc([N+](=O)[O-])cc1 [IG20, (E)-N-((1S,2R)-1,3-dihydroxy-1-(4-nitrophenyl)propan-2-yl)tetradec-9-enamide] | – | – | – | – | no cytotoxicity |
| CCCCCCCCCCCCN(C)C(=O)[C@@H](NC(=O)c1cc2cc(Br)ccc2[nH]1)[C@@H](C)O [IG10] | – | – | – | – | no cytotoxicity |
| CCCCCCCC/C=C\CCCCCCCC(=O)N[C@H](CO)[C@@H](O)c1ccc([N+](=O)[O-])cc1 [IG17, N-((1S,2R)-1,3-dihydroxy-1-(4-nitrophenyl)propan-2-yl)oleamide] | effectively increase; also recorded: significant efficacy | potent activity | – | suppress | – |
| CCCCCCCCCCCCCNC(=O)[C@@H](NC(=O)c1cc2c(F)cccc2[nH]1)[C@@H](C)O [IG4] | effectively increase; also recorded: significant efficacy | potent activity | – | suppress | – |
| CCCCCCCCCCCCN(C)C(=O)[C@@H](NC(=O)c1cc2cc(C)ccc2[nH]1)[C@@H](C)O [IG9] | – | potent activity | – | – | – |
| CCCCCCCCCCCCCNC(=O)[C@@H](NC(=O)c1cc2cc(OC)ccc2[nH]1)[C@@H](C)O [IG7] | effectively increase; also recorded: significant efficacy | potent activity | – | suppress | – |
| CCCCCCCCCCCCN(C)C(=O)[C@@H](NC(=O)c1cc2cc(F)ccc2[nH]1)[C@@H](C)O [IG14] | effectively increase; also recorded: significant efficacy | potent activity | – | – | – |
